Measured values: the NIST ThermoML archive (doi:10.1021/je800921n)

Legend:
[1] = Molar enthalpy of transition or fusion; conditions: Crystal; Differential scanning calorimeter
[2] = Crystal; Differential scanning calorimeter

Molar enthalpy of transition or fusion [1]: 8.44 kcal/mol
Normal melting temperature [2]: 102.5 °C
SMILES: O=C(O)CCCCCCCC(=O)O [1,9-nonanedioic acid]
